The results in this text go back to US12655104B2, “Anticancer compounds selective for ER-positive cancers” (THE BOARD OF TRUSTEES OF THE UNIVERSITY OF ILLINOIS, priority 2020, dated 2026).

Structures are written as SMILES. Where two headings read alike, the source gives them in different places. Where only a bound is given, the exact number is not on record here.

Common to all, as to assay type: cell-based
In one assay the test system is MCF-7 cells. Description: Alamar blue fluorescence viability (IC50), MCF-7. The protocol:
(§1) Cancer Cell Lines: Culturing Conditions and Validation. All cell lines were cultured at 37° C. with 5% CO2. All ERα-positive cell lines were grown in media lacking phenol red. MCF-7 were grown in EMEM with 10% FBS and 1% penicillin-streptomycin (P/S). T47D were cultured in MEM with 10% FBS and 1% P/S. TYS and TDG cells were grown in MEM supplemented with 10% CD-FBS and 1% P/S. HCT-116 and MDA-MB-231 cells were cultured in RPMI-1640 supplemented with 10% FBS and 1% P/S. MDA-MB-436 cells were cultured in DMEM supplemented with 10% FBS and 1% P/S. HT-29 were cultured in McCoy's media supplemented with 10% FBS and 1% P/S. All cell lines were used directly from ATCC stocks and/or have been further authenticated using PowerPlex16HS Assay (Promega) as described previously.^54 In short, >1 million cells were harvested and lysed using the cell lysis buffer (50 mM Tris, 50 mM EDTA, 25 mM sucrose, 100 mM NaCl, 1% SDS, pH 8). DNA extraction and short tandem repeats (STRs) profiling for each cell line were carried out at the University of Arizona Genetics Core (UAGC). Autosomal STR profiles were compared to reference databases such as ATCC, DSMZ, and JCRB.
(§2) Alamar Blue Fluorescence for Anticancer Activity (IC50). 2,000-15,000 cells per well were seeded a 96-well plate. Cells were allowed to adhere before DMSO stock solutions of test compounds were added to each well with a final concentration of DMSO in each well=1%; final volume: 100 μL. At the end of the desired incubation time (e.g., 24 or 72 hours), media in each well was aspirated and new fresh media (no compound, 100 μL) was added. Alamar blue solution (4 mg resazurin per 40 mL PBS) was then added (10 μL). After 2-6 hours incubation, each well's fluorescence (λexcit.=555 nm, λemission.=585 nm) was measured using a SpectraMax M3 plate reader (Molecular Devices). Percent dead was determined by comparison to a 100% dead control: 100 μM raptinal treated cells. Dose dependent curves and IC50 were calculated using Origin Pro V10.
On the technique in general: Resazurin is reduced to fluorescent resorufin, in cell work by metabolically active cells.

The test system of the next assay is HCT-116. Briefly: Alamar blue fluorescence viability (IC50), HCT-116. The settings on record: for Fold Change: Average Fold Change between 24/72 hr IC50 values for MCF-7 and HCT-116; for IC50: HCT-116, ERα negative. The protocol:
as §1, §2

For the next assay, the system named is HT-29. Description: Alamar blue fluorescence viability (IC50), HT-29. The settings on record: for Fold Change: Average Fold Change between 24/72 hr IC50 values for MCF-7 and HT-29; for IC50: HT-29, ERα negative. As for the experimental part: as §1, §2
In a further assay the test system is MDA-MB-231. Description: Alamar blue fluorescence viability (IC50), MDA-MB-231. The following applies: for Fold Change: Average Fold Change between 24/72 hr IC50 values for MCF-7 and MDA-MB-231; for IC50: MDA-MB-231, ERα negative. As for the experimental part:
as §1, §2

Where [1] appears, read: MCF-7, ERα positive, 72 hr, read-out: IC50 72 hr.
The mark [2] stands for this setting: Homo sapiens, MCF7, MCF-7 cells, 24 hours, Alamar blue, mean ± s.e.m., read-out: IC50.
Setting [3] is: MCF-7, ERα positive, 24 hr, read-out: IC50 24 hr.

As a reminder, the IC50 is the point on the concentration scale where inhibition reaches its midpoint. Take `O=C1Nc2c(C(F)(F)F)cccc2C1(c1ccc(O)cc1)N1CC(F)(F)C1` (centres unmarked): in the assay on MCF-7 cells (setting [1]), the IC50 was 0.117 ± 0.003 µM.
Turning to `CC(C)c1cc(C2(c3ccc(OC(F)(F)F)cc3)C(=O)Nc3c(C(F)(F)F)cccc32)cc(C(C)C)c1O` (centres unmarked) [Compound 13, 3-(4-hydroxy-3,5-diisopropylphenyl)-3-(4-(trifluoromethoxy)phenyl)-7-(trifluoromethyl)indolin-2-one], the IC50 in the assay on MCF-7 cells (setting [2]) was over 1 µM.
On the same count and under the same terms, as for `CC1CN(C2(c3ccc(O)cc3)C(=O)Nc3c(C(F)(F)F)cccc32)CCC1(F)F` (centres unmarked) [Compound 17, 3-(4,4-difluoro-3-methylpiperidin-1-yl)-3-(4-hydroxyphenyl)-7-(trifluoromethyl)indolin-2-one], the figure is 0.07 µM; as for `O=C1Nc2c(C(F)(F)F)cccc2C1(c1ccc(OC(F)(F)F)cc1)c1c(F)cc(O)cc1F` (centres unmarked) [Compound 8, 3-(2,6-difluoro-4-hydroxyphenyl)-3-(4-(trifluoromethoxy)phenyl)-7-(trifluoromethyl)indolin-2-one], 0.549 µM.
Regarding `O=C1Nc2c(C(F)(F)F)cccc2C1(c1ccc(O)cc1)N1CCCC(F)(F)C1` (centres unmarked), the “Fold Change” value turned out to be 636 in the assay on HCT-116, 758 in the assay with HT-29 and 667 with MDA-MB-231. Moreover, the IC50 was 38 ± 4 µM in the assay with HCT-116 (24 hr, read-out: IC50 24 hr); 21 ± 4 µM in the assay on HCT-116 (72 hr, read-out: IC50 72 hr); 29 ± 1 µM with HT-29 (24 hr, read-out: IC50 24 hr); 25 ± 3 µM in the assay with HT-29 (72 hr, read-out: IC50 72 hr); 0.039 ± 0.01 µM in the assay with MCF-7 cells (setting [3]); 0.033 ± 0.001 µM with MCF-7 cells (setting [1]). For the same molecule, the IC50 was 49 ± 4 µM in the assay with MDA-MB-231 (24 hr, read-out: IC50 24 hr) and 22 ± 1 µM in the assay on MDA-MB-231 (72 hr, read-out: IC50 72 hr).
Regarding `O=C1Nc2c(C(F)(F)F)cccc2C1(c1ccc(O)cc1)N1CC(F)(F)C(F)(F)C1` (centres unmarked) [drawing 36], the “Fold Change” value with HCT-116 was determined as 3750; with HT-29, 3750; in the assay on MDA-MB-231 it was 3500. For the same molecule, the IC50 in the assay on HCT-116 (24 hr, read-out: IC50 24 hr) was 24 ± 2 µM; with HCT-116 (72 hr, read-out: IC50 72 hr), 15 ± 3 µM; in the assay on HT-29 (24 hr, read-out: IC50 24 hr), 25 ± 1 µM; in the assay with HT-29 (72 hr, read-out: IC50 72 hr) it was 15 ± 2 µM; with MCF-7 cells (setting [3]) it was 0.005 ± 0.001 µM; in the assay on MCF-7 cells (setting [1]), 0.004 ± 0.001 µM. Also, the IC50 in the assay on MDA-MB-231 (24 hr, read-out: IC50 24 hr) was found to be 22 ± 2 µM; in the assay with MDA-MB-231 (72 hr, read-out: IC50 72 hr), 14 ± 1 µM.
As to `O=C1Nc2c(C(F)(F)F)cccc2C1(c1ccc(O)cc1)N1CCC(F)(F)CC1` (racemic) [Compound 2, 3-(4,4-difluoropiperidin-1-yl)-3-(4-hydroxyphenyl)-7-(trifluoromethyl)indolin-2-one], in the assay on MCF-7 cells (setting [2]), the IC50 was found to be 0.035 µM.
As to `O=C1Nc2c(C(F)(F)F)cccc2C1(c1ccc(O)cc1)N1CCOCC1` (centres unmarked) [Compound 18, 3-(4-hydroxyphenyl)-3-morpholino-7-(trifluoromethyl)indolin-2-one], the half-maximal inhibitory concentration (IC50) in the assay with MCF-7 cells (setting [2]) is over 1 µM.
`O=C1Nc2c(C(F)(F)F)cccc2C1(c1ccc(O)cc1)N1CC(F)(F)C(F)(F)C1` (centres unmarked) [drawing 37]: the IC50 in the assay with MCF-7 cells (setting [3]) and in the assay with MCF-7 cells (setting [1]) was over 1 µM throughout.
`O=C1Nc2c(C(F)(F)F)cccc2C1(c1ccc(O)cc1)N1CCC(O)CC1` (centres unmarked) [Compound 20, 3-(4-hydroxyphenyl)-3-(4-hydroxypiperidin-1-yl)-7-(trifluoromethyl)indolin-2-one]: the IC50 in the assay on MCF-7 cells (setting [2]) is over 1 µM.
The same measure, in the same setting: as for `O=C1Nc2c(C(F)(F)F)cccc2C1(c1ccc(O)cc1)N1CCC(OC(F)(F)F)CC1` (centres unmarked) [Compound 21, 3-(4-hydroxyphenyl)-3-(4-(trifluoromethoxy)piperidin-1-yl)-7-(trifluoromethyl)indolin-2-one], the figure is 0.135 µM.
For `O=C1Nc2c(C(F)(F)F)cccc2C1(c1ccc(OC(F)(F)F)cc1)c1ccc(OC(F)(F)F)cc1` [Compound 9, 3,3-bis(4-(trifluoromethoxy)phenyl)-7-(trifluoromethyl)indolin-2-one], the IC50 with MCF-7 cells (setting [2]) is over 1 µM. In addition, the “anticancer activity against MCF-7 cells (in words)” value (from here on “anticancer activity”) in the assay on MCF-7 cells (MCF-7 cells) is “lack of activity”.
Consider `O=C1Nc2c(C(F)(F)F)cccc2C1(c1ccc(OC(F)(F)F)cc1)c1ccc(O)cc1F` (centres unmarked) [Compound 7, 3-(2-fluoro-4-hydroxyphenyl)-3-(4-(trifluoromethoxy)phenyl)-7-(trifluoromethyl)indolin-2-one], for which the half-maximal inhibitory concentration (IC50) with MCF-7 cells (setting [2]) is 0.177 µM.
For `Cc1cc(C2(c3ccc(OC(F)(F)F)cc3)C(=O)Nc3c(C(F)(F)F)cccc32)cc(C)c1O` (centres unmarked) [Compound 12, 3-(4-hydroxy-3,5-dimethylphenyl)-3-(4-(trifluoromethoxy)phenyl)-7-(trifluoromethyl)indolin-2-one], the IC50 in the assay on MCF-7 cells (setting [2]) is over 1 µM.
Still for that read-out and setting: the figure for `O=C1Nc2c(C(F)(F)F)cccc2C1(c1ccc(O)cc1)N1CCCCCC1` (centres unmarked) [Compound 19, 3-(azepan-1-yl)-3-(4-hydroxyphenyl)-7-(trifluoromethyl)indolin-2-one] is over 1 µM.
Consider `O=C1Nc2c(C(F)(F)F)cccc2[C@@]1(c1ccc(O)cc1)N1CCC(F)CC1` [(R)-22, (R)-3-(4-fluoropiperidin-1-yl)-3-(4-hydroxyphenyl)-7-(trifluoromethyl)indolin-2-one], for which the “anticancer activity” value in the assay on MCF-7 cells (MCF-7 cells) is on record as “lack of potent activity”.
As to `O=C1Nc2c(C(F)(F)F)cccc2C1(c1ccc(OC(F)(F)F)cc1)c1ccc(O)c(F)c1` (centres unmarked) [Compound 5, 3-(3-fluoro-4-hydroxyphenyl)-3-(4-(trifluoromethoxy)phenyl)-7-(trifluoromethyl)indolin-2-one], the IC50 in the assay with MCF-7 cells (setting [2]) was determined as 0.033 µM.
Turning to `O=C1Nc2c(C(F)(F)F)cccc2C1(c1ccc(O)cc1)N1CCCCC1` (centres unmarked) [Compound 16, 3-(4-hydroxyphenyl)-3-(piperidin-1-yl)-7-(trifluoromethyl)indolin-2-one], in the assay on MCF-7 cells (setting [2]), the IC50 was over 1 µM.
On the same count and under the same terms, the figure for `O=C1Nc2c(C(F)(F)F)cccc2C1(c1ccc(OC(F)(F)F)cc1)c1ccc(O)c(O)c1` (centres unmarked) [Compound 10, 3-(3,4-dihydroxyphenyl)-3-(4-(trifluoromethoxy)phenyl)-7-(trifluoromethyl)indolin-2-one] is 0.049 µM.
For the molecule `O=C1Nc2c(C(F)(F)F)cccc2C1(c1ccc(O)cc1)N1CCC(F)(F)C1` (centres unmarked), the entries for the “Fold Change” value with HCT-116, with HT-29 and in the assay on MDA-MB-231 were 909, 1364 and 1455, respectively. For the same molecule, the IC50 in the assay on HCT-116 (24 hr, read-out: IC50 24 hr) was 45 ± 5 µM; with HCT-116 (72 hr, read-out: IC50 72 hr), 20 ± 6 µM; with HT-29 (24 hr, read-out: IC50 24 hr) it was 35 ± 6 µM; in the assay on HT-29 (72 hr, read-out: IC50 72 hr), 30 ± 5 µM; in the assay on MCF-7 cells (setting [3]), 0.017 ± 0.001 µM; in the assay on MCF-7 cells (setting [1]), 0.022 ± 0.001 µM. Further, the IC50 is 51 ± 5 µM with MDA-MB-231 (24 hr, read-out: IC50 24 hr) and 32 ± 3 µM in the assay on MDA-MB-231 (72 hr, read-out: IC50 72 hr).
Turning to `O=C1Nc2c(C(F)(F)F)cccc2C1(c1ccc(OC(F)(F)F)cc1)c1cc(F)c(O)c(F)c1` (centres unmarked) [Compound 6, 3-(3,5-difluoro-4-hydroxyphenyl)-3-(4-(trifluoromethoxy)phenyl)-7-(trifluoromethyl)indolin-2-one], the IC50 in the assay with MCF-7 cells (setting [2]) was over 1 µM. Besides, in the assay on MCF-7 cells (MCF-7 cells), the “anticancer activity” value is reported as “loss of activity”.
Regarding `Cc1cc(C2(c3ccc(OC(F)(F)F)cc3)C(=O)Nc3c(C(F)(F)F)cccc32)ccc1O` (centres unmarked) [Compound 11, 3-(4-hydroxy-3-methylphenyl)-3-(4-(trifluoromethoxy)phenyl)-7-(trifluoromethyl)indolin-2-one], in the assay with MCF-7 cells (setting [2]), the IC50 was over 1 µM.
`O=C1Nc2c(C(F)(F)F)cccc2[C@]1(c1ccc(O)cc1)N1CC(F)(F)C(F)(F)C1` [(S)-26, (S)-3-(4-hydroxyphenyl)-3-(3,3,4,4-tetrafluoropyrrolidin-1-yl)-7-(trifluoromethyl) indolin-2-one]: the “anticancer activity” value in the assay with MCF-7 cells (MCF-7 cells) was “inactive”.
